PubChem BioAssay AID1259407 (Chemical Carcinogenesis Research Information System (CCRIS), 2018)
The source made the active and inactive calls. The rule behind the calls is not given here.

Tested on: CCRIS mutagenicity, Ames/micronucleus/aberration tests
Assay: CCRIS mutagenicity studies
[1] = Test System: AMES SALMONELLA TYPHIMURIUM, Strain/Indicator: TA98, Metabolic Activation: NONE, Method: STANDARD PLATE
[2] = Test System: AMES SALMONELLA TYPHIMURIUM, Strain/Indicator: TA100, Metabolic Activation: NONE, Method: STANDARD PLATE
[3] = Test System: AMES SALMONELLA TYPHIMURIUM, Strain/Indicator: TA1535, Metabolic Activation: NONE, Method: STANDARD PLATE
[4] = Test System: AMES SALMONELLA TYPHIMURIUM, Strain/Indicator: TA1537, Metabolic Activation: NONE, Method: STANDARD PLATE
[5] = Test System: E. COLI, Strain/Indicator: WP2 UVRA, Metabolic Activation: NONE, Method: STANDARD PLATE
[6] = Test System: AMES SALMONELLA TYPHIMURIUM, Strain/Indicator: TA1538, Metabolic Activation: NONE, Method: STANDARD PLATE

c1ccc2c(c1)-c1ccccc1C1OC21 (configuration not stated)
mutagenic call [1]: active; positive

Cc1cc2cc3ccccc3cc2c2ccccc12
mutagenic call (Test System: AMES SALMONELLA TYPHIMURIUM, Strain/Indicator: TA100, Metabolic Activation: RAT, INTACT HEPATOCYTES, AROCLOR 1254, Method: PREINCUBATION): active; positive
mutagenic call (Test System: AMES SALMONELLA TYPHIMURIUM, Strain/Indicator: TA100, Metabolic Activation: RAT, NADPH-FORTIFIED HOMOGENIZED HEPATOCYTES, AROCLOR 1254, Method: PREINCUBATION): active; positive
mutagenic call (Test System: AMES SALMONELLA TYPHIMURIUM, Strain/Indicator: TA100, Metabolic Activation: RAT, SONICATED HEPATOCYTES, AROCLOR 1254, Method: PREINCUBATION): active; positive

O=S(=O)(O)c1ccc(-c2nnc(-c3ccccn3)nc2-c2ccc(S(=O)(=O)O)cc2)cc1
mutagenic call (Test System: Mouse lymphoma, Strain/Indicator: L5178Y (tk+/tk-), Metabolic Activation: None, Method: Suspension/plate): inactive; negative
mutagenic call (Test System: Mouse lymphoma, Strain/Indicator: L5178Y (tk+/tk-), Metabolic Activation: Rat, Liver, S-9, Aroclor 1254, Method: Suspension/plate): inactive; negative

CC[C@H]1OC(=O)[C@H](C)[C@@H](O[C@H]2C[C@@](C)(OC)[C@@H](O)[C@H](C)O2)[C@H](C)[C@@H](O[C@@H]2O[C@H](C)C[C@H](N(C)C)[C@H]2O)[C@](C)(O)C[C@@H](C)[C@@H]2N[C@@H](COCCOC)O[C@H]([C@H]2C)[C@]1(C)O
mutagenic call (End Point: In vitro chromosomal aberrations, Test System: Chinese hamster lung (CHL) cells, Metabolic Activation: None): inactive; negative
mutagenic call (End Point: In vitro chromosomal aberrations, Test System: Chinese hamster lung (CHL) cells, Metabolic Activation: S-9): inactive; negative

CCC1(CC(=O)O)OCCc2c1[nH]c1c(C(C)O)cccc21 (configuration not stated)
mutagenic call [1]: inactive; negative
mutagenic call (Test System: AMES SALMONELLA TYPHIMURIUM, Strain/Indicator: TA98, Metabolic Activation: RAT, LIVER, S-9, Method: STANDARD PLATE): inactive; negative
mutagenic call [2]: inactive; negative
mutagenic call (Test System: AMES SALMONELLA TYPHIMURIUM, Strain/Indicator: TA100, Metabolic Activation: RAT, LIVER, S-9, Method: STANDARD PLATE): inactive; negative
mutagenic call [3]: inactive; negative
mutagenic call (Test System: AMES SALMONELLA TYPHIMURIUM, Strain/Indicator: TA1535, Metabolic Activation: RAT, LIVER, S-9, Method: STANDARD PLATE): inactive; negative
mutagenic call [4]: inactive; negative
mutagenic call (Test System: AMES SALMONELLA TYPHIMURIUM, Strain/Indicator: TA1537, Metabolic Activation: RAT, LIVER, S-9, Method: STANDARD PLATE): inactive; negative
mutagenic call [5]: inactive; negative
mutagenic call (Test System: E. COLI, Strain/Indicator: WP2 UVRA, Metabolic Activation: RAT, LIVER, S-9, Method: STANDARD PLATE): inactive; negative

CC(Cl)(Cl)[N+](=O)[O-]
mutagenic call (Test System: AMES SALMONELLA TYPHIMURIUM, Strain/Indicator: TA97, Metabolic Activation: HAMSTER, LIVER, S-9, AROCLOR 1254 (10%), Method: PREINCUBATION): active; positive
mutagenic call (Test System: AMES SALMONELLA TYPHIMURIUM, Strain/Indicator: TA97, Metabolic Activation: NONE, Method: PREINCUBATION): active; positive
mutagenic call (Test System: AMES SALMONELLA TYPHIMURIUM, Strain/Indicator: TA97, Metabolic Activation: RAT, LIVER, S-9, AROCLOR 1254 (10%), Method: PREINCUBATION): active; positive
mutagenic call (Test System: AMES SALMONELLA TYPHIMURIUM, Strain/Indicator: TA98, Metabolic Activation: HAMSTER, LIVER, S-9, AROCLOR 1254 (10%), Method: PREINCUBATION): inactive; negative
mutagenic call (Test System: AMES SALMONELLA TYPHIMURIUM, Strain/Indicator: TA98, Metabolic Activation: NONE, Method: PREINCUBATION): inactive; negative
mutagenic call (Test System: AMES SALMONELLA TYPHIMURIUM, Strain/Indicator: TA98, Metabolic Activation: RAT, LIVER, S-9, AROCLOR 1254 (10%), Method: PREINCUBATION): inactive; negative
mutagenic call (Test System: AMES SALMONELLA TYPHIMURIUM, Strain/Indicator: TA100, Metabolic Activation: HAMSTER, LIVER, S-9, AROCLOR 1254 (10%), Method: PREINCUBATION): active; positive
mutagenic call (Test System: AMES SALMONELLA TYPHIMURIUM, Strain/Indicator: TA100, Metabolic Activation: NONE, Method: PREINCUBATION): inactive; negative
mutagenic call (Test System: AMES SALMONELLA TYPHIMURIUM, Strain/Indicator: TA100, Metabolic Activation: RAT, LIVER, S-9, AROCLOR 1254 (10%), Method: PREINCUBATION): active; positive
mutagenic call (Test System: AMES SALMONELLA TYPHIMURIUM, Strain/Indicator: TA1535, Metabolic Activation: HAMSTER, LIVER, S-9, AROCLOR 1254 (10%), Method: PREINCUBATION): inactive; negative
mutagenic call (Test System: AMES SALMONELLA TYPHIMURIUM, Strain/Indicator: TA1535, Metabolic Activation: NONE, Method: PREINCUBATION): inactive; negative
mutagenic call (Test System: AMES SALMONELLA TYPHIMURIUM, Strain/Indicator: TA1535, Metabolic Activation: RAT, LIVER, S-9, AROCLOR 1254 (10%), Method: PREINCUBATION): inactive; negative

FC(F)C(F)(F)F
mutagenic call [1]: inactive; negative
mutagenic call (Test System: AMES SALMONELLA TYPHIMURIUM, Strain/Indicator: TA98, Metabolic Activation: RAT, LIVER, S-9, AROCLOR 1254, Method: STANDARD PLATE): inactive; negative
mutagenic call [2]: inactive; negative
mutagenic call (Test System: AMES SALMONELLA TYPHIMURIUM, Strain/Indicator: TA100, Metabolic Activation: RAT, LIVER, S-9, AROCLOR 1254, Method: STANDARD PLATE): inactive; negative
mutagenic call [3]: inactive; negative
mutagenic call (Test System: AMES SALMONELLA TYPHIMURIUM, Strain/Indicator: TA1535, Metabolic Activation: RAT, LIVER, S-9, AROCLOR 1254, Method: STANDARD PLATE): inactive; negative
mutagenic call [4]: inactive; negative
mutagenic call (Test System: AMES SALMONELLA TYPHIMURIUM, Strain/Indicator: TA1537, Metabolic Activation: RAT, LIVER, S-9, AROCLOR 1254, Method: STANDARD PLATE): inactive; negative
mutagenic call [6]: inactive; negative
mutagenic call (Test System: AMES SALMONELLA TYPHIMURIUM, Strain/Indicator: TA1538, Metabolic Activation: RAT, LIVER, S-9, AROCLOR 1254, Method: STANDARD PLATE): inactive; negative
mutagenic call [5]: inactive; negative
mutagenic call (Test System: E. COLI, Strain/Indicator: WP2 UVRA, Metabolic Activation: RAT, LIVER, S-9, AROCLOR 1254, Method: STANDARD PLATE): inactive; negative

O=[N+]([O-])c1ccc(-c2nc3sccn3c2[N+](=O)[O-])cc1
mutagenic call [1]: active; positive
mutagenic call [2]: active; positive
mutagenic call [3]: inactive; negative
mutagenic call [4]: active; positive
mutagenic call [6]: active; positive
